Among the data in PubChem BioAssay (NCI) are TGI and GI50 values, retold here.

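Exposure lasted 48 hours, with cells grown in 96-well plates and compounds tested at five concentrations. GI50: concentration for 50% inhibition of growth. At the TGI there is no net growth.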 A value given as a limit tells only on which side of the number the result lay.

Some test systems named below: A498 renal; HCT-15 colon; LOX IMVI melanoma; MDA-MB-231 breast; SK-MEL-5 melanoma; T-47D breast; TK-10 renal; UO-31 renal; SK-MEL-2 melanoma; SR leukemia.
What all share (assay): inhibition of tumour cell growth, NCI panel, 48 h

Take `CC(=O)NCCCCNCCCNC(C)=O`: the TGI with A498 renal, in the experiment on HCT-15 colon, in the experiment with LOX IMVI melanoma, with MDA-MB-231 breast, in the experiment on SK-MEL-5 melanoma and with T-47D breast was greater than 100 µM throughout. For the same compound, the TGI in the experiment with TK-10 renal and in the experiment with UO-31 renal was greater than 100 µM throughout.
Consider `CCOC/N=C(/N)NC#N`, for which the TGI in the experiment with A498 renal is greater than 100 µM; with HCT-15 colon it was 45 µM; in the experiment on LOX IMVI melanoma, 27.1 µM; in the experiment with SK-MEL-2 melanoma, greater than 100 µM; in the experiment on SK-MEL-5 melanoma, greater than 100 µM; in the experiment on SR leukemia, greater than 100 µM. The TGI with TK-10 renal and in the experiment with UO-31 renal was greater than 100 µM each time.
For the compound `O=C(CSc1nc2ccccc2[nH]1)Nc1ccc(-c2nc3ccccc3s2)c(Cl)c1`, the GI50 is 2.22 µM with A498 renal; 23.8 µM in the experiment on HCT-15 colon; 4.95 µM in the experiment with LOX IMVI melanoma; 7.44 µM in the experiment on SK-MEL-2 melanoma; 3.12 µM in the experiment with SK-MEL-5 melanoma; 1.71 µM in the experiment with T-47D breast. Moreover, the figures for the GI50 with TK-10 renal and in the experiment with UO-31 renal were 4.67 µM and 2.16 µM, respectively. Besides, the TGI with A498 renal is 52.7 µM; with HCT-15 colon, greater than 100 µM; in the experiment on LOX IMVI melanoma, greater than 100 µM; in the experiment on SK-MEL-2 melanoma, greater than 100 µM; in the experiment with SK-MEL-5 melanoma, greater than 100 µM; in the experiment on T-47D breast it was 6.05 µM. Further, the TGI was 76.6 µM with TK-10 renal and 13.7 µM with UO-31 renal.
For the compound `Cc1ccc(F)cc1NC(=O)O/N=C(\Cl)C(C)C`, the TGI with A498 renal was 40.9 µM; in the experiment on HCT-15 colon, 3.66 µM; in the experiment with LOX IMVI melanoma, 4.79 µM; with MDA-MB-231 breast, 32.8 µM; in the experiment with SK-MEL-2 melanoma it was 35.4 µM; in the experiment on SK-MEL-5 melanoma, 24.1 µM. For the same compound, the TGI worked out at 33.6 µM with T-47D breast, 15 µM with TK-10 renal and 23.2 µM with UO-31 renal.
On to `CCOC(=O)/C(=C\NCC(O)c1ccccc1)c1nc2ccccc2[nH]1` (stereo not given), for which the TGI in the experiment with A498 renal was 64.1 µM; in the experiment with HCT-15 colon, 74.3 µM; in the experiment with LOX IMVI melanoma, 37.7 µM; in the experiment with SK-MEL-5 melanoma it was 22.9 µM; with SR leukemia it was 42.7 µM; with TK-10 renal it was greater than 100 µM. Also, the TGI in the experiment with UO-31 renal was 94.4 µM.
`Cc1ccc2[nH]cc(-c3nc(-c4c[nH]c5ncccc45)cs3)c2c1`: the GI50 in the experiment on A498 renal is 3.11 µM; in the experiment on HCT-15 colon, greater than 100 µM; in the experiment with LOX IMVI melanoma, greater than 100 µM; in the experiment on MDA-MB-231 breast it was greater than 100 µM; with SK-MEL-2 melanoma it was greater than 100 µM; in the experiment with SK-MEL-5 melanoma it was greater than 100 µM. Moreover, the GI50 was greater than 100 µM in the experiment with T-47D breast, greater than 100 µM with TK-10 renal and 0.244 µM with UO-31 renal. Moreover, the TGI in the experiment with A498 renal, in the experiment on HCT-15 colon, with LOX IMVI melanoma, in the experiment on MDA-MB-231 breast, in the experiment with SK-MEL-2 melanoma and in the experiment with SK-MEL-5 melanoma was greater than 100 µM each time. Also, the TGI in the experiment with T-47D breast, in the experiment on TK-10 renal and with UO-31 renal was greater than 100 µM throughout.
Regarding `C=CC(=O)N1C/C(=C\c2ccc(N(C)C)cc2)C(=O)/C(=C/c2ccc(N(C)C)cc2)C1`, the TGI in the experiment with A498 renal, with HCT-15 colon, in the experiment on LOX IMVI melanoma, with MDA-MB-231 breast, in the experiment on SK-MEL-2 melanoma and in the experiment on SK-MEL-5 melanoma was greater than 100 µM in each case. For the same compound, the TGI with T-47D breast, in the experiment on TK-10 renal and in the experiment on UO-31 renal was greater than 100 µM in each case.
Consider `COc1ccc2[nH]c3c(c2c1)CCN(C)CC3`, for which the TGI in the experiment on A498 renal, in the experiment with HCT-15 colon, with LOX IMVI melanoma, with SK-MEL-2 melanoma, in the experiment on SK-MEL-5 melanoma and in the experiment on TK-10 renal was greater than 100 µM each time.
For the compound `Cc1ccc(C)n2c1nc1ccc3ccccc3c12`, the TGI with HCT-15 colon, with SK-MEL-5 melanoma, in the experiment on SR leukemia, in the experiment with T-47D breast, in the experiment on TK-10 renal and with UO-31 renal was greater than 100 µM each time.
With `Cc1ccc(C(=O)OC[C@H]2CC[C@@H](n3cc(N(C)C4CCCCC4)c(=O)[nH]c3=O)O2)cc1`, the TGI in the experiment on A498 renal was 46.8 µM; in the experiment with HCT-15 colon, 93 µM; with LOX IMVI melanoma, 38.2 µM; with MDA-MB-231 breast, 41.3 µM; in the experiment on SK-MEL-2 melanoma it was greater than 100 µM; in the experiment on SK-MEL-5 melanoma, 40.1 µM. Further, the TGI in the experiment with SR leukemia was greater than 100 µM; with TK-10 renal, 95.2 µM; with UO-31 renal it was 62.7 µM.
On to `COc1cccc2cc(C)c(C(=O)c3ccccc3)nc12`, for which the TGI with HCT-15 colon, with LOX IMVI melanoma, in the experiment with SK-MEL-2 melanoma, in the experiment on SK-MEL-5 melanoma, in the experiment with TK-10 renal and in the experiment on UO-31 renal was greater than 100 µM throughout.
For the compound `CC1(C)OC2OC(COC(=O)C=[N+]=[N-])C3OC(C)(C)OC3C2O1` (stereo not given), the TGI in the experiment on A498 renal, in the experiment with HCT-15 colon, in the experiment on LOX IMVI melanoma, in the experiment with MDA-MB-231 breast, in the experiment with SK-MEL-2 melanoma and in the experiment on SK-MEL-5 melanoma was greater than 100 µM each time. Moreover, the TGI in the experiment on SR leukemia, in the experiment with TK-10 renal and in the experiment with UO-31 renal was greater than 100 µM in each case.
Turning to `COc1ccc2c(c1)O[C@@H]1C(O)Oc3cc(OC)c(OC)cc3[C@]1(O)C2=O` (stereo not given in full), the TGI is greater than 100 µM in the experiment on A498 renal; greater than 100 µM in the experiment with HCT-15 colon; greater than 100 µM with LOX IMVI melanoma; greater than 100 µM in the experiment on MDA-MB-231 breast; greater than 100 µM in the experiment with SK-MEL-2 melanoma; 72.4 µM in the experiment on SK-MEL-5 melanoma. The TGI in the experiment on T-47D breast and in the experiment on TK-10 renal was greater than 100 µM throughout.
Consider `CCCCOC(=O)CNC(=O)OCCCCC#CC#CCCCCOC(=O)NCC(=O)OCCCC`, for which the TGI in the experiment on A498 renal, in the experiment with LOX IMVI melanoma, in the experiment on SK-MEL-5 melanoma, in the experiment on SR leukemia, in the experiment with TK-10 renal and in the experiment on UO-31 renal was greater than 100 µM in each case.
